“Also recorded” adds a separate entry of the source.
What was measured:
rat NAFLD model [1] = assay: 12-week choline deficient high fat diet rat study (NAFLD model); type: in vivo; conditions: 11 Week Groups (Day 84)
Genotoxicity studies = assay: Genotoxicity studies
Procedure: I-1 plasma concentrations are projected to have reached at least 10 μM, exceeding reported levels of RASP in humans with inflammatory diseases. The data support the potential of I-1, and RASP inhibition in general, in treating inflammation and fibrosis.

rat NAFLD model [2] = assay: 12-week choline deficient high fat diet rat study (NAFLD model); type: in vivo; conditions: for NAS score: 7 week group
Text: NAFLD is diagnosed in the US as 3 million new cases each year. NASH is included in the NAFLD diagnosis, as it is the easiest to ascertain in a subject. NAFLD activity score (NAS) is scored as 0-2 not diagnostic, 3-4 ranges from not diagnostic/borderline/positive NASH, and 5-8 diagnostic of NASH; the NAS scoring system includes a composite of […] semi-quantitative features: steatosis (0-3), lobular inflammation (0-2), hepatocellular ballooning (0-2), and fibrosis (0-4). To analyze the effect of compound I-1 on NAFLD, NAS was analyzed in rats treated with vehicle or various doses of compound I-1 (100 mg/kg, 125 mg/kg was compared to escalation 30/60/100 mg/kg and 50/75/100 mg/kg BID, respectively in animals fed a choline deficient, high fat diet for 7 weeks (vehicle vs. 100 mg/kg vs 30/60/100 mg/kg) and 12 weeks (vehicle vs. 125 mg/kg vs 50/75/100 mg/kg). Plasma was collected at 1, 2, 3, 6, 8, 10, and 12 weeks and tested for cytokines and ALT, AST, Triglycerides, Cholesterol, and tBilirubin (measures of liver function). At 12 weeks the livers were collected and gene expression studies, immunohistochemistry, and hydroxyproline.

[3] = tested on: STAM mouse model (NASH/HCC); assay: STAM mouse model (NASH/HCC); type: in vivo
Text: The STAM™ model is a model that recapitulates the same disease progression as human NASH/HCC. In this model, male C57BL/6 mice aged two days are given a single dose of streptozotocin to reduce insulin secretory capacity. When the mice turn four weeks of age they start a high-fat diet feeding. This model has a background of late type 2 diabetes which progresses into fatty liver, NASH, fibrosis and consequently liver cancer (HCC). Compared to other NASH-HCC model mice, the disease progresses in a relatively short period of time, and liver cancer is developed in 100% of animals at 20 weeks of age. The model is widely used in NASH research, with more than 40 papers and 70 international conferences published using data from the STAM™ model so far. STAM™ model is able to reproduce many of the pathological features of human NASH. For example: ballooning degeneration of cells, a characteristic pathological feature of human NASH; burned-out NASH, in which lipid droplets decrease as fibrosis progresses; progression of fibrosis occurring around the central vein; a mild rise in ALT (a liver injury marker); increase in NASH markers such as CK-18; increase in human HCC markers such as glutamine synthase, glypican-3 and AFP have been observed.
In a STAM mouse model (NASH/HCC), animals at birth are given a low dose of STZ (200 ug) and then at 3 to 4 weeks these animals are fed a high fat diet. In the progression of the animal model, at 5 weeks fatty liver is evident, 7 weeks NASH is evident, 9 weeks fibrosis is evident, and at 10 weeks nodules are evident and necropsy is performed. In this study, three groups vehicle (0.5% methylcellulose) alone, BID (200 mg/kg in vehicle, BID=twice a day), and QID (200 mg/kg in vehicle, QID=[…]), dosing began at 4 weeks and continued to week ten of the animal model.

[4] = plasma, 7 week and 12 week groups, vs vehicle
[5] = 200 mg/kg in 0.5% methylcellulose, BID and QID groups, week 4 to 10

**Q.** What does the source list for `CC(C)(O)c1nc2ccccc2cc1N` [I-1]?
**A.** NAS scores (rat NAFLD model [1]): lower; potential for mutagenicity or clastogenicity (Genotoxicity studies): no potential for mutagenicity or clastogenicity; risk of genotoxicity (Genotoxicity studies; preclinical studies): low risk of genotoxicity; liver fibrosis (picrosirius red histopathology) (rat NAFLD model [2]; 7 week and 12 week groups): trended to have reduced; liver inflammation (hematoxylin eosin histopathology) (rat NAFLD model [2]; 7 week and 12 week groups): trended to have reduced; NAS score (rat NAFLD model [2]; 100 mg/kg, vs vehicle): statistical significant reduction; NAS score (rat NAFLD model [2]; 30/60/100 mg/kg escalation): reduced; MCP expression levels (rat NAFLD model [2]; 12 week group, vs vehicle): remained similar to vehicle; MIP expression levels (rat NAFLD model [2]; 12 week group, vs vehicle): reduction; Rantes expression levels (rat NAFLD model [2]; 12 week group, vs vehicle): remained similar to vehicle; cholesterol (rat NAFLD model [2]; [4]): trended at lower values than vehicle; triglycerides (rat NAFLD model [2]; [4]): trended at lower values than vehicle; hepatic fibrosis [3, 5]: significantly reduced; also recorded: significant reduction; hepatic triglycerides [3, 5]: significantly reduced; also recorded: significant reduction; body weight gain ([3]; 200 mg/kg in methylcellulose, BID and QID (FIG. 10: QD or BID), vs vehicle): statistically significant reduction

Source: patent US20230149383A1, “QUINOLINE COMPOUNDS FOR TREATING LUNG, LIVER, AND KIDNEY DISEASES, DISORDERS, OR CONDITIONS” (Aldeyra Therapeutics, Inc., priority 2020, published 2023)
